“And” between values parts separate entries of the source, which are not always exact repeats. Identical values can stand only once.
Experiments:
N27-A cells = experiment: Mitochondrial activity assay, Seahorse XFp, N27-A cells; type: cell-based, rat; design: Seahorse time trace (OCR): unit not given here; settings: for OCR changes after FCCP injection: MPP+ co-treatment, individual replicates (Supplementary Figure S1o); for Seahorse time trace (OCR) / ATP turnover: replicates; for ATP turnover: Fig. S1n, with MPP+
Description: Mitochondrial activity was measured using the Seahorse XFp analyzer (Agilent Technologies) according to the manufacturer’s instruction. Briefly, cells were plated onto wells of a XFp cell culture miniplate and incubated in a 37 °C incubator overnight. The assay was performed after cells were equilibrated for 1 h in XF assay medium supplemented with 10 mM D-glucose, 5 mM sodium pyruvate, and 2 mM glutamax in a non-CO2 incubator. Mitochondrial activity was monitored through sequential injections of 1 μM oligomycin, 2 μM carbonyl cyanide-4 (trifluoromethoxy) phenylhydrazone (FCCP) and 0.5 μM rotenone/antimycin A to calculate basal respiration (= baseline oxygen consumption rate (OCR)−rotenone/antimycin A OCR), maximal respiration (= FCCP OCR−rotenone/antimycin A OCR), ATP turnover (= baseline OCR−oligomycin OCR), and OCR changes after FCCP injection (= FCCP OCR−oligomycin OCR). Each plotted value was normalized to total protein quantified using a Bradford protein assay (Bio-Rad) and analyzed using the Seahorse WAVE Desktop software (Agilent Technologies).

Nurr1-LBD = Nurr1-LBD (Homo sapiens, UniProt P43354); experiment: TR-FRET competition assay with HCQFluo; type: binding; settings: Fig. 1i
Sequence of Nurr1-LBD (P43354 360-595 limits assumed, species assumed): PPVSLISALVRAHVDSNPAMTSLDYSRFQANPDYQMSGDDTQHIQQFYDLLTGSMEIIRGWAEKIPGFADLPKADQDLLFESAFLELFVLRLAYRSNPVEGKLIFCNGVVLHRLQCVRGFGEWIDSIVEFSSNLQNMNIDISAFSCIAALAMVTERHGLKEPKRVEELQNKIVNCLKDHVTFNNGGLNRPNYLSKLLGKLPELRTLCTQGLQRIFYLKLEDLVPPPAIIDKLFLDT
Description: TR-FRET assay was performed in PPI Terbium (Tb) detection buffer (PerkinElmer) and contained 0.2 µM of Nurr1-LBD, 0.5 µM of fluorescence-labeled hydroxy-CQ (HCQFluo; Proimaging) and serial concentrations of CQ, 4A7C-301 or RA (10^−4–10^6 nM). Rabbit anti-Nurr1 antibody (3 nM; prepared in our lab) and anti-rabbit IgG-Tb (1:400; Cisbio, 61PARTAF) were included in the assay solution as a donor complex. Assay solutions were loaded in a 384-well OptiPlate™ (PerkinElmer). After 2 h incubation in the dark at room temperature, the FRET signal was measured by excitation at 340 nm and emission at 520 nm for fluorescein and 495 nm for Tb using a VICTOR Nivo plate reader (PerkinElmer). Data were fit using the non-linear regression program in GraphPad Prism version 8.0.2.

MPTP-induced male mice = experiment: Pole test, MPTP-induced PD model mice; type: in vivo, mouse; settings: Figure 4c; MPTP-induced mice; individual animal values
Description: MPTP (Sigma-Aldrich) was intraperitoneally (i.p.) injected (30 mg/kg) for 5 days (Day 1-5). […] To test dyskinetic involuntary behavior, an L-DOPA injected group was included, which received 50 mg/kg of L-DOPA and 15 mg/kg of benserazide (Sigma-Aldrich) (i.p.) for 16 days (Day 1–16). All compounds were administered 6 h post-MPTP injection to avoid any effect of compounds on the MPTP metabolism in the brain. Motor and non-motor related behavior tests were performed on the following days as described in Fig. 4a in an assessor- and observer-blinded fashion. Pre-training and baseline setup for motor-related behaviors were performed 3 days prior to the injections. Mice were sacrificed and subjected to immunohistochemistry. Mice were housed at the Animal Care Facilities of McLean Hospital under a 12-h light/12-h dark cycle, ambient temperature and humidity. Animals were handled in accordance with McLean Hospital’s Institutional Animal Care and Use Committee (Protocol #: 2015N000002) and followed National Institutes of Health guidelines.
Mice were trained to descend a vertical metal rod wrapped with rough tape (80 cm high, 12 mm diameter) once per day for 2 days, and then the baseline was measured before the pole test (3 days before the MPTP injection or the first pole test at week 2). Mice were placed head-upward on the pole and total descent time was recorded.

Compound: CCN(CC)CCCC(C)Nc1ccnc2cc(Cl)ccc12 (stereo not drawn) [CQ, chloroquine]
- OXPHOS capacity reduced by MPP+ (in words) (N27-A cells; CQ 100 µM, 4A7C-301 1 µM): efficiently restored
- OCR changes after FCCP injection (N27-A cells; Control N27-A cells): 8.55 pmol/min/µg protein and 7.31 pmol/min/µg protein and 2.32 pmol/min/µg protein and 23.52 pmol/min/µg protein
- Seahorse time trace (OCR) (N27-A cells; Fig. S1j/k, Control + MPP+, time 2 min): 3.66 and 2.51 and 27.76
- Seahorse time trace (OCR) (N27-A cells; Fig. S1j/k, Control + MPP+, time 8 min): 3.46 and 2.01 and 20.11
- Seahorse time trace (OCR) (N27-A cells; Fig. S1j/k, Control + MPP+, time 15 min): 2.32 and 1.98 and 22.16 and 9.29
- Seahorse time trace (OCR) (N27-A cells; Fig. S1j/k, Control + MPP+, time 21 min): 0.27 and 19.75 and 5.17
- Seahorse time trace (OCR) (N27-A cells; Fig. S1j/k, Control + MPP+, time 28 min): 0.58 and 1.26 and 17.08 and 5.33
- Seahorse time trace (OCR) (N27-A cells; Fig. S1j/k, Control + MPP+, time 34 min): 0.71 and 18.32 and 7.16
- Seahorse time trace (OCR) (N27-A cells; Fig. S1j/k, Control + MPP+, time 41 min): 7.58 and 3.41 and 40.6 and 13.72
- Seahorse time trace (OCR) (N27-A cells; Fig. S1j/k, Control + MPP+, time 47 min): 6.82 and 3.28 and 39.31
- Seahorse time trace (OCR) (N27-A cells; Fig. S1j/k, Control + MPP+, time 54 min): 6.13 and 3.21 and 37.92 and 10.02
- Seahorse time trace (OCR) (N27-A cells; Fig. S1j/k, Control + MPP+, time 61 min): 0.03 and 1.24 and 16.5 and 4.04
- Seahorse time trace (OCR) (N27-A cells; Fig. S1j/k, Control + MPP+, time 67 min): 0.55 and 1.35 and 12.69 and 5.31
- Seahorse time trace (OCR) (N27-A cells; Fig. S1j/k, Control + MPP+, time 74 min): 1.39 and 17 and 5.99
- Seahorse time trace (OCR) (N27-A cells; Fig. S1j, Nurr1 OE + MPP+, time 2 min): 26.25 and 15.29
- Seahorse time trace (OCR) (N27-A cells; Fig. S1j, Nurr1 OE + MPP+, time 8 min): 18.52 and 15.98
- Seahorse time trace (OCR) (N27-A cells; Fig. S1j, Nurr1 OE + MPP+, time 15 min): 20.57 and 30.55 and 13.93
- Seahorse time trace (OCR) (N27-A cells; Fig. S1j, Nurr1 OE + MPP+, time 21 min): 5.95 and 6.99 and 4.75 and 6.7
- Seahorse time trace (OCR) (N27-A cells; Fig. S1j, Nurr1 OE + MPP+, time 28 min): 5.18 and 6.25 and 5.44 and 7.19
- Seahorse time trace (OCR) (N27-A cells; Fig. S1j, Nurr1 OE + MPP+, time 34 min): 4.78 and 5.8 and 5.34 and 7.96
- Seahorse time trace (OCR) (N27-A cells; Fig. S1j, Nurr1 OE + MPP+, time 41 min): 28.78 and 44.27 and 30.42
- Seahorse time trace (OCR) (N27-A cells; Fig. S1j, Nurr1 OE + MPP+, time 47 min): 28.4 and 36.09 and 14.17
- Seahorse time trace (OCR) (N27-A cells; Fig. S1j, Nurr1 OE + MPP+, time 54 min): 26.28 and 35.06 and 18.57 and 28.22
- Seahorse time trace (OCR) (N27-A cells; Fig. S1j, Nurr1 OE + MPP+, time 61 min): 4.76 and 5.21 and 0.65 and 4.3
- Seahorse time trace (OCR) (N27-A cells; Fig. S1j, Nurr1 OE + MPP+, time 67 min): 4.21 and 5.44 and 0.96 and 4.79
- Seahorse time trace (OCR) (N27-A cells; Fig. S1j, Nurr1 OE + MPP+, time 74 min): 4.26 and 6.26 and 5.01
- Seahorse time trace (OCR) (N27-A cells; Fig. S1k, Nurr1 KD + MPP+, time 2 min): 19.09 and 7.42 and 5.75 and 10.38
- Seahorse time trace (OCR) (N27-A cells; Fig. S1k, Nurr1 KD + MPP+, time 8 min): 18.47 and 7.53 and 4.86 and 8.38
- Seahorse time trace (OCR) (N27-A cells; Fig. S1k, Nurr1 KD + MPP+, time 15 min): 15.57 and 7.6 and 4.41 and 7.39
- Seahorse time trace (OCR) (N27-A cells; Fig. S1k, Nurr1 KD + MPP+, time 21 min): 1.43 and 1.21
- Seahorse time trace (OCR) (N27-A cells; Fig. S1k, Nurr1 KD + MPP+, time 28 min): 13.44 and 8.97 and 1.24
- Seahorse time trace (OCR) (N27-A cells; Fig. S1k, Nurr1 KD + MPP+, time 34 min): 8.6
- ATP turnover (N27-A cells; Control cells): 6.76 pmol/min/µg protein and 3.39 pmol/min/µg protein and 1.42 pmol/min/µg protein and 10.68 pmol/min/µg protein
- ATP turnover (N27-A cells; Nurr1 KD cells): 7.63 pmol/min/µg protein and -1 pmol/min/µg protein and 4.86 pmol/min/µg protein and 9.17 pmol/min/µg protein
- ATP turnover (N27-A cells; Nurr1 OE cells): 19.32 pmol/min/µg protein and 24.75 pmol/min/µg protein and 13.77 pmol/min/µg protein and 18.27 pmol/min/µg protein
- OCR changes after FCCP injection (N27-A cells; Nurr1 KD N27-A cells): 12.59 pmol/min/µg protein and 4.43 pmol/min/µg protein and 9.84 pmol/min/µg protein and 17.76 pmol/min/µg protein
- OCR changes after FCCP injection (N27-A cells; Nurr1 OE N27-A cells): 24 pmol/min/µg protein and 37.47 pmol/min/µg protein and 12.22 pmol/min/µg protein and 23.73 pmol/min/µg protein
- Interaction [HTRF] (Nurr1-LBD; 0.05 µM): 3273.3930 and 3465.5840 and 3369.4880
- Interaction [HTRF] (Nurr1-LBD; 0.1 µM): 3399.0860 and 3151.8330 and 3275.4590
- Interaction [HTRF] (Nurr1-LBD; 0.5 µM): 3111.7350 and 2901.1980 and 3006.4660
- Interaction [HTRF] (Nurr1-LBD; 1 µM): 2895.7250 and 2781.2580 and 2838.4910
- Interaction [HTRF] (Nurr1-LBD; 5 µM): 2113.6450 and 1994.2770 and 2053.9610
- Interaction [HTRF] (Nurr1-LBD; 10 µM): 1574.8930 and 1346.8690 and 1460.8810
- Interaction [HTRF] (Nurr1-LBD; 50 µM): 1485.2580 and 1344.1380 and 1414.6980
- Interaction [HTRF] (Nurr1-LBD; 100 µM): 1202.4890 and 1355.5820 and 1279.0350
- Interaction [HTRF] (Nurr1-LBD; 200 µM): 1193.4910 and 1136.9480 and 1165.2200
- IC50 (Nurr1-LBD; competition with HCQFluo): 2330 nM and 2000 nM
- Time to traverse (MPTP-induced male mice): 6.3 s and 5.45 s and 6.58 s and 7.09 s and 8.95 s and 7.99 s and 7.69 s and 9.73 s and 9.95 s
